Source: patent publication US12508275B2, “Neomycin based compounds, and pharmaceutical use thereof” (UNIVERSITÉ COTE D'AZUR, priority 2019, dated 2025)

Tests used:
[1] = system: human endothelial cells (HUVEC); assay: XTT toxicity assay on human endothelial cells; format: cell-based
Description: (§1) FIG. 4: Determination of compound toxicity on GSC and normal human cells. (A) GB5 were incubated with growing concentration of Compounds 9a-b and 18a. (B) human normal neural stem cell (NNSC), human normal kidney cells (NHEK), human normal hepatocytes (HEPRG) and (C) human endothelial cells (HUVEC) were treated with growing concentration of Compound 9a. 7 days later, the cells were subjected to an XTT assays as described in the method section. The results are the meaning of at least two separate experiments. Cell death was confirmed by trypan blue staining (not shown).
(§2) V—Toxicity tests: NNSC, GB5, TG6, HEK293, and HepaRG, HUVEC were seeded at 2000 cells/well in 96 wells plate in their respective culture mediums alone or containing growing concentration from 10 to 500 uM of Compounds 9a-b. Cultures were incubated 4 days and the cellular toxicity has been evaluated by XTT assays. Cell viability has been also assessed by counting living and dead cells with trypan blue staining.
XTT assays allows, through cell metabolism measurement, to determine a cytotoxic/cytostatic effects. Compounds 9a-b and 18a were tested for their eventual toxicity by XTT assays as described in the material and method section. At the working concentrations 10 to 25 uM, the compounds are not toxic for GSC (FIG. 4A). […]

[2] = system: Patient derived GSC (GB5); assay: Effect of compound treatment on GSC phenotype (adhesion, morphology), GB5; format: cell-based, human; conditions: GB5, 10 uM, three days
Excerpt: FIG. 1: phase contrast images of GB5 morphology untreated (CTL DMSO) or treated with the indicated compound (“Cpd” denotes compound) at the indicated concentration. Control cells grow as non-adherent spheroids composed of numerous GSC. When differentiated the cells become adherent and spread on the culture dish.
B—Cell culture: Patient-derived cells GB5 were isolated from surgical resection of human primary GBM provided by the department of neurosurgery of the University Hospital of Nice. TG6 (patient-derived cell from primary GBM) and HNNSC25 (Human Normal Neural Stem Cells) have been provided by Dr Hervé Chneiweiss, University of Pierre and Marie Curie, Paris. The resulting primary cultures (GB5, TG6, HNNSC25) were grown in NS34+ medium containing EGF and bFGF (DMEM-F12 1/1 ratio, 10 mM glutamine, 10 mM Hepes, 0.025% Sodium bicarbonate, N2, G5, and B27).
Patient derived GSC (GB5) were treated with growing concentration of Compounds 9a-b and 18a-b (10 to 100 uM) during three days). […] Similar results have been obtained with TG6.

human kidney (NHEK) = assay: XTT toxicity assay on human kidney cells; format: cell-based
Description: as §1
HEK293 (human embryonic kidney cell) were grown in DMEM supplemented with glutamax and 10% foetal calf serum.
as §2
XTT assays allows, through cell metabolism measurement, to determine a cytotoxic/cytostatic effects. Compounds 9a-b and 18a were tested for their eventual toxicity by XTT assays as described in the material and method section. […]

GB5 cells = assay: TMZ assay: GSC sensitivity to Temozolomide (XTT); format: cell-based, human; conditions: three days
Description: FIG. 5: Sensitivity to TMZ was assessed by comparing the percentage of dead cells between TMZ treated GB5 and TMZ treated GB5 in combination with Compound 9a. GB5 cells have been treated with 400 uM TMZ alone or in combination with growing concentrations of Compounds 9a-b and 18b. The results are the meaning of at least two separate experiments.
IV—TMZ assay: TG6 and GB5 were seeded at 2000 cells/well in 96 wells plate in NS34+ or treated with medium containing 400 uM of TMZ alone or mixed with 10, 25 and 50 uM of Compounds 9a-b and 18a-b. Cultures were incubated 4 days and the cell viability has been evaluated by XTT assays and a count of living and dead cells with trypan blue staining.
Temozolomide is the chemotherapy of reference for GBM treatment. In order to assess whether the compounds might sensitize GSC to TMZ, TMZ (400 uM) pretreated GB5 cells were incubated with 10, 25 and 50 uM of Compounds 9a-b and 18b. Three days later the experiment is stop and the cells were subjected to an XTT assays. […] Cell toxicity was confirmed by trypan blue staining.

GB5 = assay: XTT toxicity assay on GSC (GB5); format: cell-based
Description: as §1
II—XTT assay: TG6 and GB5 were seeded at 2000 cells/well in 96 wells plate in NS34+ alone or containing 10, 20, 25, 50 and 100 uM of Compounds 9a-b and 18a-b. Cultures were incubated 4 days and the cell proliferation was evaluated as indicated by the manufacturer.
as §2
XTT assays allows, through cell metabolism measurement, to determine a cytotoxic/cytostatic effects. Compounds 9a-b and 18a were tested for their eventual toxicity by XTT assays as described in the material and method section. At the working concentrations 10 to 25 uM, the compounds are not toxic for GSC (FIG. 4A). […] Compound 9a toxicity was further tested on normal neural stem cells (NNSC), human kidney (NHEK), human hepatocytes (HEPRG) and human endothelial cells (HUVEC). The compound is not toxic on NNSC, NHEK, HEPRG and HUVEC cells when used between 10 to 50 uM. At 100 uM and above, Compound 9a was toxic (FIG. 4).

[3] = system: luminescent patient derived GSC orthotopic xenograft; assay: Orthotopic xenograft of luminescent patient derived GSC, treatment from two weeks after injection; format: in vivo, nude mice
Description: FIG. 3: Nude mice were orthotopically xenografted by luminescent patient derived GSC. (A-B) Two weeks following injections, mice were intraperitoneally injected with 10 mg/kg (n=4), 7.5 mg/kg (n=4) or 5 mg/kg (n=4) of Compound 9a or vehicle alone as control (ctl n=10). A) graphical representation of the average of tumor growth in the control group (n=10) and in each Compound 9a treated groups. B) Survival of the whole population of mice of the untreated and treated groups were compared using a log rank test according to Kaplan Meier method. (R command, see World Wide Web: biostatgv.sentiweb.fr/?module=tests/surv). The solid line represents the survival rate of control untreated mice. The dotted line represents the survival rate of mice treated by compound 9a. C) Mice treatment with compound 9a when the tumors were already formed. Tumor growth representation in mice, treated either with DMSO (control: -♦-) or Compound 9a (-▪-). Tumor growth was controlled every week by live imaging. The solid line represents the tumor growth in control untreated mice. The dotted line represents the tumor growth in mice treated by compound 9a.
Nude mice were orthotopically xenografted by luminescent patient derived GSC. […]

[4] = system: OCT4, NANOG, SOX2 expression in GB5; assay: OCT4, NANOG, SOX2 pluripotency marker immunofluorescence in GB5; format: cell-based, human; conditions: GB5, 20 uM

For `NCCCCNCCCNC(=O)c1csc(-c2csc(CCNC(=O)CCc3cn(CC4OC(OC5C(O)C(N)CC(N)C5OC5OC(CN)C(O)C(O)C5N)C(O)C4OC4OC(CN)C(O)C(O)C4N)nn3)n2)n1` (stereo not drawn) [Compound 9a, N-(3-((4-Aminobutyl)amino)propyl)-2′-(2-(3-(1-methyl-1H-1,2,3-triazol-4-yl)propanamido)ethyl)-[2,4′-bithiazole]-4-carboxamide-neomycin], the “toxicity (XTT)” value ([1]; 100 uM and above) was “toxic”, the “toxicity (XTT)” value ([1]; between 10 to 50 uM) was “not toxic” and the “adhesion and changes in GSC morphology” value [2] was “induced adhesion and changes in GSC morphology”. The “toxicity (XTT)” value (human kidney (NHEK); 100 uM and above) was “toxic”, the “toxicity (XTT)” value (human kidney (NHEK); between 10 to 50 uM) was “not toxic” and the “increase of TMZ sensitivity” value (GB5 cells; GB5, TMZ 400 uM plus compound at 10 uM) was 2 fold. For the same compound, the “increase of TMZ sensitivity, maximal effect” value (GB5 cells; GB5, TMZ 400 uM plus compound at 50 uM) was 2.9 fold, the “toxicity for GSC (XTT)” value (GB5; GB5, 50 uM and higher) was “relative toxicity” and the “toxicity for GSC (XTT)” value (GB5; GB5, 10 to 25 uM) was “not toxic”. The “treated mice that developed a tumor” value ([3]; intraperitoneal 10, 7.5 or 5 mg/kg, three days a week, all control mice developed a tumor) was “two mice above twelve”, the “tumor initiation and development” value ([3]; intraperitoneal at 10 mg/kg, 7.5 mg/kg and 5 mg/kg) was “prevented tumor initiation and development” and the “OCT4, NANOG and SOX2 expression” value [4] was “down regulation”.
